This note sets out measurements from patent US20110160196A1, “FACTOR XA INHIBITORS” (Millennium Pharmaceuticals, Inc., priority 2007, published 2011).

The target of the experiment is T1, human plasma protein factor Xa (Homo sapiens, UniProt P00742).
T1 construct: The human plasma protein factor Xa was purchased; purchased Haematologic Technologies (Essex Junction, Vt.); host or cells: human plasma
Briefly: Factor Xa IC50 determination (cleavage of paranitroanilide substrate S-2765). It is filed as biochemical. The settings on record: factor Xa 1 nM, S-2765 100 μM, Tris buffered saline pH 7.4, read at 405 nm. From the text:
This example illustrates methods for evaluating the compounds of the invention, along with results obtained for such assays. The in vitro and in vivo human Factor Xa activities of the inventive compounds can be determined by various procedures known in the art, such as a test for their ability to inhibit the activity of human plasma Factor Xa. […] The IC50 value is the concentration (in nM) of the compound required to provide 50% inhibition of human Factor Xa proteolytic activity.
An in vitro assay for detecting and measuring inhibition activity against Factor Xa is as follows:
The substrate S-2765 (Z-D-Arg-Gly-Arg-pNA.HCl) was obtained from Diapharma (West Chester, Ohio).
The human plasma protein factor Xa was purchased from Haematologic Technologies (Essex Junction, Vt.).
All assays, which are performed in 96-well microtiter plates, measure proteolytic activity of the enzyme (factor Xa) by following cleavage of a paranitroanilide peptide substrate. The assay buffer used for proteolytic assays was Tris buffered saline (20 mM Tris, 150 mM NaCl, 5 mM CaCl2, 0.1% Bovine serum albumin (BSA), 5% Dimethly Sulfoxide (DMSO) pH 7.4). In a 96-well microtiter plate, inhibitor was serially diluted to give a range of final concentrations from 0.01 nM to 10 μM. Duplicate sets of wells were assayed and control wells without inhibitor were included. Enzyme was added to each well, (factor Xa concentration=1 nM), the plate was shaken for 5 seconds and then incubated for 5 minutes at room temperature. S-2765 was added (100 μM final) and the plate was shaken for 5 seconds (final volume in each well was 200 μl). The degree of substrate hydrolysis was measured at 405 nm on a Thermomax plate reader (Molecular Devices, Sunnyvale, Calif.) for 2 minutes. The initial velocities of substrate cleavage (mOD/min), for each range of inhibitor concentrations, were fitted to a four parameter equation using Softmax data analysis software. The parameter C, derived from the resulting curve-fit, corresponded to the concentration for half maximal inhibition (IC50).

The structures appear in SMILES notation.

T1 sequence (P00742 235-488 limits assumed): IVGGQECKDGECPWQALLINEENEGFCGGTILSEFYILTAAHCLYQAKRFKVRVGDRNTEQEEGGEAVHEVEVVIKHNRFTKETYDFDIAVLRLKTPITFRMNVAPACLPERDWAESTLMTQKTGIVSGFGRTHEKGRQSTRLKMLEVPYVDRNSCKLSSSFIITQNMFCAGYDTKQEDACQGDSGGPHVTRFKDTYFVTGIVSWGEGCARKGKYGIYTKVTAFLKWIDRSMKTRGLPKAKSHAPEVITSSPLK
T1 sequence (P00742 41-179 partner limits assumed): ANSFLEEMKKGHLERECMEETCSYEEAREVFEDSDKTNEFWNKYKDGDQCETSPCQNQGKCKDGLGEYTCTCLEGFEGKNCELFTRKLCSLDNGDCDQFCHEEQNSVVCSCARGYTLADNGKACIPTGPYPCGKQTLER

As for `O=C(NCc1cn(-c2ccc(-n3ccccc3=O)cc2-n2ccnc2)nn1)c1ccc(Cl)s1` [Compound 42, N-((1-(2-(1H-Imidazol-1-yl)-4-(2-oxopyridin-1(2H)-yl)phenyl)-1H-1,2,3-triazol-4-yl)methyl)-5-chlorothiophene-2-carboxamide], the IC50 (as a rule, the concentration that inhibits the measured activity by half) was at most 100 nM.
The same measure for `O=C(NCc1cn(-c2ccc(-n3ccccc3=O)cc2N2CCCC2=O)nn1)c1ccc(Cl)s1` [Compound 43, 5-Chloro-N-((1-(4-(2-oxopyridin-1(2H)-yl)-2-(2-oxopyrrolidin-1-yl)phenyl)-1H-1,2,3-triazol-4-yl)methyl)thiophene-2-carboxamide]: at most 100 nM.
`O=C(NCc1cn(-c2ccc(-n3ccccc3=O)cc2[N+](=O)[O-])nn1)c1ccc(Cl)s1` [Compound 44, 5-ChIoro-N-((1-(2-nitro-4-(2-oxopyridin-1(2H)-yl)phenyl)-1H-1,2,3-triazol-4-yl)methyl)thiophene-2-carboxamide]: the IC50 is at most 100 nM.
Take `Nc1cc(-n2ccccc2=O)ccc1-n1cc(CNC(=O)c2ccc(Cl)s2)nn1` [Compound 45, N-((1-(2-Amino-4-(2-oxopyridin-1(2H)-yl)phenyl)-1H-1,2,3-triazol-4-yl)methyl)-5-chlorothiophene-2-carboxamide]: the IC50 was at most 100 nM.
Turning to `CSc1cc(-n2ccccc2=O)ccc1-n1cc(CNC(=O)c2ccc(Cl)s2)nn1` [Compound 50, 5-Chloro-N-((1-(2-(methylthio)-4-(2-oxopyridin-1(2H)-yl)phenyl)-1H-1,2,3-triazol-4-yl)methyl)thiophene-2-carboxamide], the IC50 is at most 100 nM.
The same measure for `C[S+]([O-])c1cc(-n2ccccc2=O)ccc1-n1cc(CNC(=O)c2ccc(Cl)s2)nn1` (stereo not drawn) [Compound 51, 5-Chloro-N-((1-(2-(methylsulfoxy)-4-(2-oxopyridin-1(2H)-yl)phenyl)-1H-1,2,3-triazol-4-yl)methyl)thiophene-2-carboxamide]: at most 100 nM.
The same measure for `CS(=O)(=O)c1cc(-n2ccccc2=O)ccc1-n1cc(CNC(=O)c2ccc(Cl)s2)nn1` [Compound 52, 5-Chloro-N-((1-(2-(methylsulfonyl)-4-(2-oxopyridin-1(2H)-yl)phenyl)-1H-1,2,3-triazol-4-yl)methyl)thiophene-2-carboxamide]: at most 100 nM.
The same measure for `NCCSc1cc(-n2ccccc2=O)ccc1-n1cc(CNC(=O)c2ccc(Cl)s2)nn1` [Compound 53, N-((1-(2-(2-Aminoethylthio)-4-(2-oxopyridin-1(2H)-yl)phenyl)-lH-1,2,3-triazol-4-yl)methyl)-5-chlorothiophene-2-carboxamide]: at most 100 nM; for `NCC[S+]([O-])c1cc(-n2ccccc2=O)ccc1-n1cc(CNC(=O)c2ccc(Cl)s2)nn1` (stereo not drawn) [Compound 54, N-((1-(2-(2-Aminoethylsulfoxy)-4-(2-oxopyridin-1(2H)-yl)phenyl)-1H-1,2,3-triazol-4-yl)methyl)-5-chlorothiophene-2-carboxamide]: at most 100 nM; for `COc1cc(-n2ccccc2=O)ccc1-n1cc(CNC(=O)c2ccc(Cl)s2)nn1` [Compound 56, 5-Chloro-N-((1-(2-methoxy-4-(2-oxopyridin-1(2H)-yl)phenyl)-1H-1,2,3-triazol-4-yl)methyl)thiophene-2-carboxamide]: at most 100 nM.
`O=C(NCc1cn(-c2ccc(-n3ccccc3=O)cc2OC2CCNCC2)nn1)c1ccc(Cl)s1` [Compound 57, 5-Chloro-N-((1-(4-(2-oxopyridin-1(2H)-yl)-2-(piperidin-4-yloxy)phenyl)-1H-1,2,3-triazol-4-yl)methyl)thiophene-2-carboxamide]: the concentration for half-maximal inhibition (IC50) was at most 100 nM.
The same measure for `O=C(NCc1cn(-c2ccc(-n3ccccc3=O)cc2Oc2ccncc2)nn1)c1ccc(Cl)s1` [Compound 63, 5-Chloro-N-((1-(4-(2-oxopyridin-1(2H)-yl)-2-(pyridin-4-yloxy)phenyl)-1H-1,2,3-triazol-4-yl)methyl)thiophene-2-carboxamide]: at most 100 nM; for `O=C(NCc1cn(-c2ccc(-n3ccccc3=O)cc2Oc2cccnc2)nn1)c1ccc(Cl)s1` [Compound 64, 5-Chloro-N-((1-(4-(2-oxopyridin-1(2H)-yl)-2-(pyridin-3-yloxy)phenyl)-1H-1,2,3-triazol-4-yl)methyl)thiophene-2-carboxamide]: at most 100 nM; for `O=C(NCc1cn(-c2ccc(-n3ccccc3=O)cc2OCCCN2C(=O)c3ccccc3C2=O)nn1)c1ccc(Cl)s1` [Compound 67, 5-Chloro-N-((1-(2-(3-(1,3-dioxoisoindolin-2-yl)propoxy)-4-(2-oxopyridin-1(2H)-yl)phenyl)-1H-1,2,3-triazol-4-yl)methyl)thiophene-2-carboxamide]: at most 100 nM.
In turn, `NCCCOc1cc(-n2ccccc2=O)ccc1-n1cc(CNC(=O)c2ccc(Cl)s2)nn1` [Compound 68, N-((1-(2-(3-Aminopropoxy)-4-(2-oxopyridin-1(2H)-yl)phenyl)-1H-1,2,3-triazol-4-yl)methyl)-5-chlorothiophene-2-carboxamide] had an IC50 of at most 100 nM.
As for `O=C(NCc1cn(-c2ccc(-n3ccccc3=O)cc2OCCCO)nn1)c1ccc(Cl)s1` [Compound 74, 5-Chloro-N-((1-(2-(3-hydroxypropoxy)-4-(2-oxopyridin-1(2H)-yl)phenyl)-1H-1,2,3-triazol-4-yl)methyl)thiophene-2-carboxamide], the concentration for half-maximal inhibition (IC50) was at most 100 nM.
The same measure for `O=C(NCc1cn(-c2ccc(-n3ccccc3=O)cc2OCCO)nn1)c1ccc(Cl)s1` [Compound 75, 5-Chloro-N-((1-(2-(2-hydroxyethoxy)-4-(2-oxopyridin-1(2H)-yl)phenyl)-1H-1,2,3-triazol-4-yl)methyl)thiophene-2-carboxamide]: at most 100 nM; for `COCCOc1cc(-n2ccccc2=O)ccc1-n1cc(CNC(=O)c2ccc(Cl)s2)nn1` [Compound 76, 5-Chloro-N-((1-(2-(2-methoxyethoxy)-4-(2-oxopyridin-1(2H)-yl)phenyl)-1H-1,2,3-triazol-4-yl)methyl)thiophene-2-carboxamide]: at most 100 nM; for `O=C(NCc1cn(-c2ccc(-n3ccccc3=O)cc2OC[C@H](O)CO)nn1)c1ccc(Cl)s1` [Compound 78, 5-Chloro-N-((1-(2-((R)-2,3-dihydroxypropoxy)-4-(2-oxopyridin-1(2H)-yl)phenyl)-1H-1,2,3-triazol-4-yl)methyl)thiophene-2-carboxamide]: at most 100 nM.
Next, `O=C(NCc1cn(-c2ccc(-n3ccccc3=O)cc2OC[C@@H](O)CO)nn1)c1ccc(Cl)s1` [Compound 79, 5-Chloro-N-((1-(2-((S)-2,3-dihydroxypropoxy)-4-(2-oxopyridin-1(2H)-yl)phenyl)-1H-1,2,3-triazol-4-yl)methyl)thiophene-2-carboxamide]: at most 100 nM.
The same measure for `CS(=O)(=O)CCOc1cc(-n2ccccc2=O)ccc1-n1cc(CNC(=O)c2ccc(Cl)s2)nn1` [Compound 80, 5-Chloro-N-((1-(2-(2-(methylsulfonyl)ethoxy)-4-(2-oxopyridin-1(2H)-yl)phenyl)-1H-1,2,3-triazol-4-yl)methyl)thiophene-2-carboxamide]: at most 100 nM; for `CCS(=O)(=O)CCOc1cc(-n2ccccc2=O)ccc1-n1cc(CNC(=O)c2ccc(Cl)s2)nn1` [Compound 82, 5-Chloro-N-((1-(2-(2-(ethylsulfonyl)ethoxy)-4-(2-oxopyridin-1(2H)-yl)phenyl)-1H-1,2,3-triazol-4-yl)methyl)thiophene-2-carboxamide]: at most 100 nM.
As to `CS(=O)(=O)CCCOc1cc(-n2ccccc2=O)ccc1-n1cc(CNC(=O)c2ccc(Cl)s2)nn1` [Compound 83, 5-Chloro-N-((1-(2-(3-(methylsulfonyl)propoxy)-4-(2-oxopyridin-1(2H)-yl)phenyl)-1H-1,2,3-triazol-4-yl)methyl)thiophene-2-carboxamide], the concentration for half-maximal inhibition (IC50) was at most 100 nM.
Next, `CN(C)CCOc1cc(-n2ccccc2=O)ccc1-n1cc(CNC(=O)c2ccc(Cl)s2)nn1` [Compound 85]: at most 100 nM.
Next, `CN(C)CC[N+](C)(C)CCOc1cc(-n2ccccc2=O)ccc1-n1cc(CNC(=O)c2ccc(Cl)s2)nn1` [Compound 86]: at most 100 nM; `O=C(NCc1cn(-c2ccc(-n3ccccc3=O)cc2OCCN2CCCC2)nn1)c1ccc(Cl)s1` [Compound 88, 5-Chloro-N-((1-(4-(2-oxopyridin-1(2H)-yl)-2-(2-(pyrrolidin-1-yl)ethoxy)phenyl)-1H-1,2,3-triazol-4-yl)methyl)thiophene-2-carboxamide]: at most 100 nM; `O=C(NCc1cn(-c2ccc(-n3ccccc3=O)cc2OCCN2CCCCC2)nn1)c1ccc(Cl)s1` [Compound 89, 5-Chloro-N-((1-(4-(2-oxopyridin-1(2H)-yl)-2-(2-(piperidin-1-yl)ethoxy)phenyl)-1H-1,2,3-triazol-4-yl)methyl)thiophene-2-carboxamide]: at most 100 nM.
